The values below are quoted from earlier work in patent publication US20230293541A1, “METHODS OF TREATING OPHTHALMIC CONDITIONS WITH ENHANCED PENETRATION COMPOSITIONS OF BIMATOPROST AND TIMOLOL” (Somerset Therapeutics, LLC, priority 2022, published 2023).

For series [1] the following is noted: under certain conditions.
The conditions of series [2]: in comparison to latanoprost and travoprost.
For series [3] the following is noted: patients starting on prostaglandin monotherapy.
The conditions of series [4]: three-month comparison, glaucoma and ocular hypertension.

For `CCNC(=O)CCC/C=C\C[C@@H]1[C@@H](/C=C/[C@@H](O)CCc2ccccc2)[C@H](O)C[C@@H]1O` [bimatoprost, (Z)-7-[(1R, 2R, 3R, 5S)-3,5-Dihydroxy-2-[(1E, 3S)˜3-hydroxy-5-phenyl˜1-pentenyl]cyclopentyl]˜5-N-ethylheptenamid], in series [1], the API stability entry is listed as “remain stable”. In series [2], the corneal penetration result was “poor corneal penetration”. Moreover, the “rate of adjunctive medication use” value in series [3] is 23.2%. Further, the “mean pressures (IOP) versus latanoprost” value in series [4] was “lower mean pressures than latanoprost at every time point studied”.

As for `CC(C)OC(=O)CCC/C=C\C[C@@H]1[C@@H](/C=C/[C@@H](O)COc2cccc(C(F)(F)F)c2)[C@H](O)C[C@@H]1O` [travoprost], in series [1], the API stability result is “experiencing degradation”. Further, the “rate of adjunctive medication use” value in series [3] is on record as 22.5%.

`CC(C)OC(=O)CCC/C=C\C[C@@H]1[C@@H](CC[C@@H](O)CCc2ccccc2)[C@H](O)C[C@@H]1O` [latanoprost]: the API stability result in series [1] is reported as “experiencing degradation”. The “rate of adjunctive medication use” value in series [3] is reported as 30.2%.
